Read-outs that look alike come from different tables or passages of the source. Where no end group is shown, it is not given here.
What was measured:
[1] = human, in vivo; cited from earlier work
target mRNA [2] = conditions: cited from earlier work
HBV [3] = conditions: compared with lamivudine; cited from earlier work
HBV [4] = conditions: 715 treatment-naive HBeAg-positive patients, compared with lamivudine; cited from earlier work
target mRNA [5] = test: HK polymers as carriers of siRNA (transfection, reduction of target mRNA); assay type: cell-based; conditions: highly branched polymers with eight terminal branches
[6] = siRNA uptake with HK carriers; assay type: cell-based; conditions: compared with other HK polymers or non-viral carriers tested

Molecule: Cc1cn([C@H]2O[C@@H](CO)[C@H](O)[C@H]2F)c(=O)[nH]c1=O [Clevudine, 2′-fluoro-5-methyl-b-L-arabinofuranosyl-uracil]
- adverse events that halted development [1]: myopathy and mitochondrial toxicity

Molecule: H^2K4b: four-branched histidine-lysine peptide polymer, branch KHKHHKHHKHHKHHKHHKHK- (also: one branch of four-branched polymer on lysine core)
- carrier of siRNA (target mRNA [2]): poor carrier

Molecule: C=C1[C@H](CO)[C@@H](O)C[C@@H]1n1cnc2c(=O)[nH]c(N)nc21 [Entecavir]
- reducing viral DNA replication in vitro (HBV [3]): more effective than lamivudine
- rate of histological, virological and biochemical improvement (HBV [4]): significantly higher rate

Molecule: H^3K4b: four-branched histidine-lysine peptide polymer, branch KHHHKHHHKHHHKHHHK- (also: one branch of four-branched polymer on lysine core)
- carrier of siRNA (target mRNA [2]): effective carriers

B1: H^3K8b: highly branched histidine-lysine polymer with eight terminal branches and a histidine-rich domain (peptide)
chain 1: HHHKHHHKHHHKHHH
chain 2: HHHKHHHKHHHKHHHKHHHHNHHHH
chain 3: HHHKHHHKHHHKHHHKHHHHNHHHHKKK-NH2
modifications: also: chain 2 K16 side chain amide-linked to another sequence, chain 3 K16, K26, K27, K28 side chains amide-linked to other sequences (branched core)
- carrier of siRNA (target mRNA [5]): highly effective
- siRNA uptake [6]: more effectively than other HK polymers or non-viral carriers tested

Source: patent US20240158794A1, “NUCLEOSIDE CONTAINING siRNAS FOR TREATING VIRAL DISEASES” (priority 2020, published 2024)
